# Measurements reported in patent US7071231B2, “Naphthalene ureas as glucose uptake enhancers” (Telik, Inc., priority 1999, dated 2006).
# Where a name gives a salt, the structure may show the parent alone.
# Test system: 3T3 L1 fibroblasts
# Experiment: Glucose transport activity assay (14C-2-deoxy-D-glucose uptake)
# Assay type: cell-based
# Conditions: EC (effective concentration) for increase in glucose transport; 14C-2-deoxy-D-glucose, 3T3 L1 cells; read-out: Concentration (μM) to reach >150% activity of vehicle control
# Description: Glucose Transport Activity Assay.
# Stimulation of the insulin receptor leads to the transport of glucose from the blood into cells, thus modulating blood glucose levels. 3T3 L1 fibroblasts (ATCC) were grown in Dulbecco's modified Eagle's medium (DMEM) with 10% fetal bovine serum (FBS). The cells were plated at a density of 3×10^4 cells/well in 24-well plates. Two days after confluence was reached, the cells were treated for 3 days with 0.5 mM isobutylmethylxanthine (IBMX), 1 μM dexamethasone, and 1.7 μM insulin. The cells were then transferred to DMEM with 10% FBS and supplemented with 1.7μM insulin for 2 more days. The cells were maintained in DMEM with 10% FBS for an additional 4 days. Finally the cells were serum-starved overnight in 0.1% bovine serum albumin (BSA) in DMEM.
# The following day, the medium was replaced with 150 mM NaCl, 1.7 mM KCl, 0.9 mM CaCl2, K2HPO4 (pH 7.4) to which were added either the experimental compounds or their vehicle (DMSO). Insulin or its vehicle (0.01% BSA) was diluted in the assay buffer (containing test compound or vehicle, respectively) to final concentration of […]. After incubation for 30 min at 37° C., 5 μCi/ml ^14C-2-deoxy-D-glucose was added, and the incubation was continued for additional 30 min at 37° C. The cells were then washed 3 times with ice-cold PBS/20 mM glucose and lysed in 250 μl of lysis buffer (50 mM HEPES pH 7.6, 1% Triton X-100) for 30 min at room temperature. Radioactivity in the lysate was quantified by scintillation counting.
# Once ^14C-2-deoxy-D-glucose is transported into the cell, it is not released. Glucose transport is, therefore, proportional to the amount of radioactivity in the lysate. The concentration of compound necessary to produce an increase in glucose transport to greater than 150% of the vehicle control (generally representing the sum of the standard deviation of the vehicle control plus the largest standard deviation of a test sample) was recorded as the EC (effective concentration). Shown in FIG. 3 is glucose uptake by cells at various concentrations when treated with Compound 13 and Compound 15.
row,SMILES,EC (150% of vehicle control)
1,"CN=C(Nc1ccc2ccc(NS(=O)(=O)c3ccc(Cl)c(C(=O)OC)c3)cc2c1)Nc1ccc2ccc(NS(=O)(=O)c3ccc(Cl)c(C(=O)OC)c3)cc2c1 [Compound 161, methyl 5-[({7-[((1E)-2-aza-1-{[7-({[4-chloro-3-(methoxycarbonyl)phenyl]sulfonyl}amino)(2-naphthyl)]amino}prop-1-enyl)amino](2-naphthyl)}amino)sulfonyl]-2-chlorobenzoate]",>32 µM
2,"CN=C(Nc1ccc2ccc(NS(=O)(=O)c3ccc(Cl)c(C(=O)O)c3)cc2c1)Nc1ccc2ccc(NS(=O)(=O)c3ccc(Cl)c(C(=O)O)c3)cc2c1 [Compound 162, 5-({[7-({(1E)-2-aza-1-[(7-{[(3-carboxy-4-chlorophenyl)sulfonyl]amino}(2-naphthyl))amino]prop-1-enyl}amino)(2-naphthyl)]amino}sulfonyl)-2-chlorobenzoic acid]",>32 µM
3,"COC(=O)c1cc(S(=O)(=O)Nc2ccc3ccc(NC(=NC#N)Nc4ccc5ccc(NS(=O)(=O)c6ccc(Cl)c(C(=O)OC)c6)cc5c4)cc3c2)ccc1Cl [Compound 165, methyl 5-[({7-[((1E)-2-aza-1-{[7-({[4-chloro-3-(methoxycarbonyl)phenyl]sulfonyl}amino)(2-naphthyl)]amino}-2-cyanovinyl)amino](2-naphthyl)}amino)sulfonyl]-2-chlorobenzoate]",3.2 µM
4,"N#CN=C(Nc1ccc2ccc(NS(=O)(=O)c3ccc(Cl)c(C(=O)O)c3)cc2c1)Nc1ccc2ccc(NS(=O)(=O)c3ccc(Cl)c(C(=O)O)c3)cc2c1 [Compound 166, 5-({[7-({(1E)-2-aza-1-[(7-{[(3-carboxy-4-chlorophenyl)sulfonyl]amino}(2-naphthyl))amino]-2-cyanovinyl}amino)(2-naphthyl)]amino}sulfonyl)-2-chlorobenzoic acid]",3.2 µM
5,"C=CCN=C(Nc1ccc2ccc(NS(=O)(=O)c3ccc(Cl)c(C(=O)OC)c3)cc2c1)Nc1ccc2ccc(NS(=O)(=O)c3ccc(Cl)c(C(=O)OC)c3)cc2c1 [Compound 167, methyl 5-[({7-[((1E)-2-aza-1-{[7-({[4-chloro-3-(methoxycarbonyl)phenyl]sulfonyl}amino)(2-naphthyl)]amino}penta-1,4-dienyl)amino](2-naphthyl)}amino)sulfonyl]-2-chlorobenzoate]",>32 µM
6,"C=CCN=C(Nc1ccc2ccc(NS(=O)(=O)c3ccc(Cl)c(C(=O)O)c3)cc2c1)Nc1ccc2ccc(NS(=O)(=O)c3ccc(Cl)c(C(=O)O)c3)cc2c1 [Compound 168, 5-({[7-({(1E)-2-aza-1-[(7-{[(3-carboxy-4-chlorophenyl)sulfonyl]amino}(2-naphthyl))amino]penta-1,4-dienyl}amino)(2-naphthyl)]amino}sulfonyl)-2-chlorobenzoic acid]",>32 µM

# Same assay, conditions: Mus musculus, 3T3-L1, read-out: Concentration (μM) to reach >150% activity of vehicle control
row,SMILES,EC (150% of vehicle control)
1,"CN(c1cccc(S(=O)(=O)O)c1)S(=O)(=O)c1ccc2ccc(NC(=O)Nc3ccc4ccc(S(=O)(=O)N(C)c5cccc(S(=O)(=O)O)c5)cc4c3)cc2c1 [Compound 103, 3-{methyl[(7-{[(7-{[methyl(3-sulfophenyl)amino]sulfonyl}(2-naphthyl))amino]-carbonylamino}-(2-naphthyl))sulfonyl]amino}benzenesulfonic acid dipotassium salt]",3.2 µM

# Same assay, conditions: Mus musculus; EC (effective concentration) for increase in glucose transport; 14C-2-deoxy-D-glucose, 3T3 L1 cells; read-out: Concentration (μM) to reach >150% activity of vehicle control
row,SMILES,EC (150% of vehicle control)
1,"O=C(Nc1ccc2ccc(S(=O)(=O)Nc3ccc(Cl)c(CO)c3)cc2c1)Nc1ccc2ccc(S(=O)(=O)Nc3ccc(Cl)c(CO)c3)cc2c1 [Compound 85, N-[7-({[4-chloro-3-(hydroxymethyl)phenyl]amino}sulfonyl)(2-naphthyl)]{[7-({[4-chloro-3-(hydroxymethyl)phenyl]amino}sulfonyl)(2-naphthyl)]amino}carboxamide]",32 µM
2,"O=C(Nc1ccc2c(O)cc(S(=O)(=O)Nc3cccc(C(F)(F)F)c3)cc2c1)Nc1ccc2c(O)cc(S(=O)(=O)Nc3cccc(C(F)(F)F)c3)cc2c1 [Compound 88, N-[5-hydroxy-7-({[3-(trifluoromethyl)phenyl]amino}sulfonyl)(2-naphthyl)]{[5-hydroxy-7-({[3-(trifluoromethyl)phenyl]amino}sulfonyl)(2-naphthyl)]amino}carboxamide]",> 32 µM
3,"O=C(Nc1ccc2ccc(S(=O)(=O)O)cc2c1)Nc1ccc2ccc(S(=O)(=O)Nc3ccc(Cl)c(S(=O)(=O)O)c3)cc2c1 [Compound 90, 7-{[(7-{[(4-chloro-3-sulfophenyl)amino]sulfonyl}-2-naphthyl)amino]carbonylamino}naphthalene-2-sulfonic acid]",3.2 µM
4,"O=C(Nc1ccc2ccc(S(=O)(=O)Nc3ccc(Cl)c(S(=O)(=O)O)c3)cc2c1)Nc1ccc2ccc(S(=O)(=O)Nc3ccc(Cl)c(S(=O)(=O)O)c3)cc2c1 [Compound 91, 2-chloro-5-{[(7-{[(7-{[(4-chloro-3-sulfophenyl)amino]sulfonyl}(2-naphthyl))amino]carbonylamino}(2-naphthyl))sulfonyl]amino}benzenesulfonic acid]",3.2 µM
5,"O=C(Nc1ccc2ccc(S(=O)(=O)Nc3cccc(S(=O)(=O)O)c3)cc2c1)Nc1ccc2ccc(S(=O)(=O)Nc3cccc(S(=O)(=O)O)c3)cc2c1 [Compound 114, 3-{[(7-{[N-(7-{[(3-sulfophenyl)amino]sulfonyl}-2-naphthyl)carbamoyl]amino}-2-naphthyl)sulfonyl]amino}benzenesulfonic acid disodium salt]",3.2 µM
6,"O=C(Nc1ccc2ccc(C(=O)Nc3cccc(C(=O)O)c3)cc2c1)Nc1ccc2ccc(C(=O)Nc3cccc(C(=O)O)c3)cc2c1 [Compound 116, 3-({7-[({7-[N-(3-carboxyphenyl)carbamoyl]-2-naphthyl}amino)carbonylamino]-2-naphthyl}carbonylamino)benzoic acid]",> 32 µM
7,"O=C(Nc1ccc2ccc(NS(=O)(=O)c3cccc(C(=O)O)c3)cc2c1)Nc1ccc2ccc(NS(=O)(=O)c3cccc(C(=O)O)c3)cc2c1 [Compound 129, 3-{[(7-{[N-(7-{[(3-carboxyphenyl)sulfonyl]amino}-2-naphthyl)carbamoyl]amino}-2-naphthyl)amino]sulfonyl}benzoic acid]",32 µM
8,"COC(=O)c1cc(NS(=O)(=O)c2ccc3ccc(NC(=S)Nc4ccc5ccc(S(=O)(=O)Nc6ccc(Cl)c(C(=O)OC)c6)cc5c4)cc3c2)ccc1Cl [Compound 157, methyl 2-chloro-5-[({7-[({[7-({[4-chloro-3-(methoxycarbonyl)phenyl]amino}sulfonyl)(2-naphthyl)]amino}thioxomethyl)amino](2-naphthyl)}sulfonyl)amino]benzoate]",> 32 µM
9,"COC(=O)c1cc(NS(=O)(=O)c2ccc3ccc(/N=C(/Nc4ccc5ccc(S(=O)(=O)Nc6ccc(Cl)c(C(=O)OC)c6)cc5c4)SC)cc3c2)ccc1Cl [Compound 158, methyl 5-({[7-((1Z)-1-aza-2-{[7-({[4-chloro-3-(methoxycarbonyl)phenyl]amino}sulfonyl)(2-naphthyl)]amino}-2-methylthiovinyl)(2-naphthyl)]sulfonyl}amino)-2-chlorobenzoate]",> 32 µM
10,"O=C(Nc1ccc2cc(S(=O)(=O)Nc3cccc(S(=O)(=O)O)c3)ccc2c1)Nc1ccc2cc(S(=O)(=O)Nc3cccc(S(=O)(=O)O)c3)ccc2c1 [Compound 169, 3-{[(6-{[(6-{[(3-sulfophenyl)amino]sulfonyl}-2-naphthyl)amino]carbonylamino}-2-naphthyl)sulfonyl]amino}benzenesulfonic acid]",3.2 µM
11,"O=C(Nc1ccc2cc(S(=O)(=O)Nc3cccc(C(=O)O)c3)ccc2c1)Nc1ccc2cc(S(=O)(=O)Nc3cccc(C(=O)O)c3)ccc2c1 [Compound 171, 3-{[(6-{[(6-{[(3-carboxyphenyl)amino]sulfonyl}-2-naphthyl)amino]carbonylamino}-2-naphthyl)sulfonyl]amino}benzoic acid]",3.2 µM
12,"O=C(Nc1ccc2cc(S(=O)(=O)Nc3ccc(C(=O)O)cc3)ccc2c1)Nc1ccc2cc(S(=O)(=O)Nc3ccc(C(=O)O)cc3)ccc2c1 [Compound 173, 4-{[(6-{[(6-{[(4-carboxyphenyl)amino]sulfonyl}-2-naphthyl)amino]carbonylamino}-2-naphthyl)sulfonyl]amino}benzoic acid]",3.2 µM
13,"O=C(Nc1ccc2cc(S(=O)(=O)Nc3cc(C(=O)O)cc(C(=O)O)c3)ccc2c1)Nc1ccc2cc(S(=O)(=O)Nc3cc(C(=O)O)cc(C(=O)O)c3)ccc2c1 [Compound 175, 5-{[(6-{[(6-{[(3,5-dicarboxyphenyl)amino]sulfonyl}-2-naphthyl)amino]carbonylamino}-2-naphthyl)sulfonyl]amino}benzene-1,3-dicarboxylic acid]",3.2 µM
